{
  "source": "patent US20040106135A1",
  "about": "“Assay for PPAR ligand dependent gene modulation” (priority 2002, published 2004)",
  "key": {"[1]": {"system": "ADRP mRNA in HK-2 cells (endogenous PPARα)", "test": "ADRP mRNA induction in HK-2 cells (real-time RT-PCR)", "assay_type": "cell-based, human", "conditions": "100 nM GW9578", "protocol": "Values were normalized to 18S rRNA levels.\nCell culture: The following cell lines were obtained from American Type Culture Collection (ATCC) and cultured in the recommended medium for each cell type: HepG2, HK-2, Caki-1, LNCaP (CloneFGC), SW872, and ACHN. PPARα compounds were prepared to a 500× stock in DMSO; corresponding control cells received an equal volume of vehicle (0.2% v/v).\n(§1) Real-time PCR: Fluorescence-based real-time PCR was performed essentially as described (Abbaszade et al., (1999) J. Biol. Chem. 274:23443-23450). […] Taqman-based real-time PCR expression profiling was performed using 25 ng of each cDNA according to the manufacturer's (PE Biosystems) instructions with fluorescence being monitored in real-time with an ABI Prism 7700 (PE Biosystems). Relative expression levels were determined essentially as described (Gibson et al., (1996) Genome Res. 6:995-1001) using standard curves for each transcript. Relative abundance was then determined from these standard curves, subtracting mRNA levels obtained from negative control reactions performed in the absence of reverse transcriptase, and normalized to 18S rRNA levels. […]"}, "LNCaP cells": {"system": "LNCaP cells", "test": "Transcriptional profiling by DNA microarray, LNCaP cells", "assay_type": "cell-based, human", "protocol": "Expression profiling: Expression profiling of RNA samples was performed essentially as described (Lockhart et al., (1996) Nat. Biotechnol. 14:1675-80) using the Affymetrix human U95Av2 array. Briefly, RNA was isolated from 100 mm cell culture dishes, DNased, and 15 μg used as a template for double stranded cDNA synthesis according to standard protocols (Invitrogen). Reverse transcription was primed using a T7-modified oligo-dT primer (5-[…]-d(T)24-3′) (SEQ ID NO: 1). In vitro transcription was then performed on each double stranded cDNA synthesis, according to the manufacturer's (Enzo Diagnostics) instructions. The resultant cRNA products were purified using RNeasy columns (Qiagen), pooled, and quantitated spectrophotometrically. For each sample, 20 μg of in vitro transcribed cRNA was fragmented by heating the sample to 94° C. in the presence of 40 mM Tris-acetate, pH 8.1, 100 mM potassium acetate, and 30 mM magnesium acetate. […]\nData Analysis: Affymetrix CEL files from GeneChip 4.0 (Affymetrix) were imported into Resolver 2.0 under an empirically derived Affymetrix error model (Rosetta Inpharmatics). […] Accordingly, the statistical significance (P-value) of a given expression data point takes into account the underlying error associated with the Affymetrix transcript abundance measurements as determined by this platform-specific error model. […]"}, "[2]": {"system": "hamster PDK-4 mRNA in kidney", "test": "PDK-4 mRNA induction in kidney of fat-fed hamsters", "assay_type": "in vivo", "conditions": "single dose (GW9578 3 mg/kg, fenofibrate 100 mg/kg, gemfibrozil 500 mg/kg), 16 hours", "protocol": "FIG. 4B is a bar graphs depicting the induction of PDK-4 mRNA in hamster kidney by PPARα ligands. […] After 16 hours, the tissues were harvested, total RNA isolated and levels of hamster PDK-4 mRNA were detected by RT-PCR. The values are normalized to 18S rRNA levels. The mean and SEM of three individual animals are shown.\nPDK-4 plays a critical role in regulating glucose metabolism by phosphorylating and inactivating the pyruvate dehydrogenase complex in response to increased fatty acid oxidation. […] To investigate the response of PDK-4 to fibrate treatment in vivo, in another aspect of the present invention the fat-fed hamster model was employed, which closely mimics the serum lipid profiles of humans than other rodent models (Sullivan et al., (1993) Lab. Anim. Sci. 43:575-578). […] These doses were previously shown to yield maximal effects on blood triglycerides in hamster. […] In hamster kidney, the basal levels of PDK-4 mRNA were approximately 10-fold higher than in the liver (FIG. 4B). […] Fibrates are effective treatments for lowering serum triglyceride levels. To verify that the doses used in this study were efficacious, blood triglyceride levels were monitored over a 48 hour time course.\nas §1"}},
  "data": [
    {"smiles": "CCCCCCCN(CCc1ccc(SC(C)(C)C(=O)O)cc1)C(=O)Nc1ccc(F)cc1F", "note": "[GW9578, ureido-thioisobutyric acid]", "values": [
      {"measurement": "Time to near maximal increase of ADRP mRNA", "setting": "[1]", "value": "≤ 2", "unit": "h"},
      {"measurement": "Changes in gene expression in LNCaP cells", "setting": "LNCaP cells", "value": "only minor changes"},
      {"measurement": "Induction of PDK-4 mRNA in kidney", "setting": "[2]", "value": 7, "unit": "fold"}
    ]}
  ]
}
